We go through two compounds from paper PMC11447812, “How ATP and dATP Act as Molecular Switches to Regulate Enzymatic Activity in the Prototypical Bacterial Class Ia Ribonucleotide Reductase” (Biochemistry, 2024).

The target in assay [1] is T1, E. coli class Ia RNR α subunit (W28A-α2) (Escherichia coli, UniProt P00452, W28A).
T1 construct: gene nrdA; His6-W28A-α2
T1 sequence (P00452 1-761 W28A): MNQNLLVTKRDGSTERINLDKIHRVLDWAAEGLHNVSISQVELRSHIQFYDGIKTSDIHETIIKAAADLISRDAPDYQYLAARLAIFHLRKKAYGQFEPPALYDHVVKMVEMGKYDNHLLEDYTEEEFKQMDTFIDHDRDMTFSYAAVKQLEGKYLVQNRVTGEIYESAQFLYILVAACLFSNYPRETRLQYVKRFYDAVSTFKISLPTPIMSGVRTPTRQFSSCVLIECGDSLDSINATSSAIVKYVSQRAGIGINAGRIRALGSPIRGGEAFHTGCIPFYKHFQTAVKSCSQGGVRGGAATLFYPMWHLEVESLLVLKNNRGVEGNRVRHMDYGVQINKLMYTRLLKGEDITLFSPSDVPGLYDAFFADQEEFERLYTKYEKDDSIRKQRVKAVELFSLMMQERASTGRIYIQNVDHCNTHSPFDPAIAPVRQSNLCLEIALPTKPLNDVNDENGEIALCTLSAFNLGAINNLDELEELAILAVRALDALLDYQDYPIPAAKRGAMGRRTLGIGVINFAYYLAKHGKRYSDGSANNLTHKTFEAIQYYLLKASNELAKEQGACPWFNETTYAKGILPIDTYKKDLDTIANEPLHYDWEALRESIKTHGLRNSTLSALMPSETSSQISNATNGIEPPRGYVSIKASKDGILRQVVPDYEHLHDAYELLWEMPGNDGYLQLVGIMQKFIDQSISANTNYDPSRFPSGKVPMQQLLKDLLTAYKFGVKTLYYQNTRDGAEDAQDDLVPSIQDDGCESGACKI
T1 sequence (P69924 2-376 partner): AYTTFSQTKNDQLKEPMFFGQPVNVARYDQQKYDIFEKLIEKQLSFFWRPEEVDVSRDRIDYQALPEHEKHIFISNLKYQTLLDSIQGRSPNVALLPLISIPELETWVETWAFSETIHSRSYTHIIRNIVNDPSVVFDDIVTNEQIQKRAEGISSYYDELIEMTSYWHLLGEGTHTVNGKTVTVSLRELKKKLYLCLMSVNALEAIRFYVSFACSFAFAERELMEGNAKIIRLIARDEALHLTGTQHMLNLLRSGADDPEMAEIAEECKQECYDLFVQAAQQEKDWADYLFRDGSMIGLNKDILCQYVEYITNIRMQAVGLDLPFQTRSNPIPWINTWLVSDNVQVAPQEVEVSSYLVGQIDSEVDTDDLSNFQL
Kind of assay: […] Å crystal structure with ATP. Format: binding.

For assay [2], the target named is T1, E. coli class Ia RNR α subunit (W28A-α2). As to the kind of experiment: […] Å crystal structure W28A-α2-dATP/GTP; inhibition in activity assay. The assay is classed as binding.

`Nc1ccn([C@@H]2O[C@H](COP(=O)(O)OP(=O)(O)O)[C@@H](O)[C@H]2O)c(=O)n1` [CDP]: the “2.6 Å crystal structure with ATP” value in assay [1] is “provides a higher-resolution picture of the active site bound to the CDP/ATP substrate/effector pair”.
Turning to `Nc1ncnc2c1ncn2[C@H]1C[C@H](O)[C@@H](COP(=O)(O)OP(=O)(O)OP(=O)(O)O)O1` [dATP], in assay [2], the “3.55 Å crystal structure W28A-α2-dATP/GTP; inhibition in activity assay” value was “dATP was placed in the specificity site based on omit maps”.
